Several values for one entry are separate records, joined by “and”; a condition that tells them apart may be missing. Equal entries are not always repeated.
Columns and labels:
[1] = system: NF-κB dependent transcription; assay: In vivo imaging of basal NF-κB dependent transcription in NF-κB::Luc reporter mice; set-up: species or system mouse; conditions: male NF-κB::Luc mice, 4 hours, FIG. 2
Protocol: GL1001 was tested for in vivo anti-inflammatory activity by examining its effects on basal levels of NF-κB dependent transcription in mice engineered in the germline with a construct containing an NF-κB enhancer linked to a luciferase gene (i.e., NF-κB::Luc mice), such that this NE-κB reporter construct is present in all cells of the mice.
More particularly, transgenic NF-κB::Luc mice were generated using three NF-κB response elements from the Igκ light chain promoter fused to a firefly luciferase gene as described by Carlsen et al. (2002) J. Immunol. 168:1441-1446. Pronuclear microinjection of purified construct DNA was used to generate transgenic founders in the C57BL/6 XCBA/J background. Founders were subsequently back-crossed to the C57BL/6 albino background. […] Signal data were also quantitated and archived using the Living Image® software. Photons of light were quantitated using an oval region of interest (ROI) of varying sizes depending on the procedure, as described further below.
To test for in vivo effects of GL1001 on basal levels of NF-κB dependent transcription, male NF-κB::Luc mice were subjected to quantitative in vivo imaging of the abdominal area (using a fixed ROT of 2.76×3.7 cm) as described above, immediately before, and at 2, […]

ACE2 = target: T1, ACE2 (Rattus norvegicus, UniProt Q5EGZ1); assay: Acute diclofenac-induced gastric toxicity in rats: ACE2 activity in stomach tissue; assay type: in vivo; conditions: Group C: GL1001 oral before diclofenac 50 mg/kg; vehicle-diclofenac Group B 880 ± 39; p<0.0001
T1 construct: from tissue; host or cells: rat stomach (excluding forestomach) homogenate
T1 sequence (Q5EGZ1 18-805): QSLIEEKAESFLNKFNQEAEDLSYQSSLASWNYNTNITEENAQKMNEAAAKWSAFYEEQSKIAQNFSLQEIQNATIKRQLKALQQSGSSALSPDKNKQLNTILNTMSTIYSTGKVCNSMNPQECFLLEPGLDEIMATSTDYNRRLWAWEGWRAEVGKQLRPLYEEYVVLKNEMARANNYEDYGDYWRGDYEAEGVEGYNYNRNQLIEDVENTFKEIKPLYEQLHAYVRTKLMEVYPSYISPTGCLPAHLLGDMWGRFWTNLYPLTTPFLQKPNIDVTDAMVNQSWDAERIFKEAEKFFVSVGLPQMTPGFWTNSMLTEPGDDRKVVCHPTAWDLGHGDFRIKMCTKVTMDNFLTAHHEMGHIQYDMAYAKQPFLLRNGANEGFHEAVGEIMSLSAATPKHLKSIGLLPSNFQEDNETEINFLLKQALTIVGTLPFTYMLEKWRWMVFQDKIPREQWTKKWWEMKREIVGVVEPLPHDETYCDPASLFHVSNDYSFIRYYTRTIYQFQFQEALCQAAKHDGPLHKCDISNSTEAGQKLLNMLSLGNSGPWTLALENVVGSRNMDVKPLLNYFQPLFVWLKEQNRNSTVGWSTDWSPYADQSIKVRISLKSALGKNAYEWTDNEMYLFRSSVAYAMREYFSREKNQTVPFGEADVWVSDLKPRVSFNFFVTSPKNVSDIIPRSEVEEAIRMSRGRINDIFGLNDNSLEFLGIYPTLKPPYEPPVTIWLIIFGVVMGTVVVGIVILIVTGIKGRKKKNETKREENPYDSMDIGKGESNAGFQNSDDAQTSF
Protocol: (§1) Male Wistar rats were deprived of food but not water for 16 hours prior to oral administration of GL1001 90 mg/kg, incubated for 30 minutes and then given oral diclofenac 50 mg/kg. Each group consisted of 6 rats. As a negative control, one group received vehicle pretreatment, and then received vehicle instead of diclofenac. A positive control group received PGE2 100 μg/kg orally, 30 minutes prior to administration of diclofenac. All treatments were administered by oral gavage.
Three hours after diclofenac treatment, all animals were sacrificed and stomachs were removed and imaged to determine the severity of gastric damage. Additionally, stomach tissue samples were taken to assess disease activity and pharmacodynamic effects. Gastric damage scores were determined from photographic images (Ma & Wallace (2003) Am. J. Physiol. Gastrointest. Liver Physiol. 279; 341-346). Removed stomachs were opened along the greater curvature, pinned out on a wax block, and photographed along a 25 mm ruler reference with a digital 35 mm camera. The lesion area was then determined using enlarged images and computer software (www.scioncorp.co/pages/scion_image_windows.htm) that allows superimposed drawing of the perimeter of a wound and calculation of the area based on the ruler reference. Stomach samples (excluding forestomach) were used for measurements of PGE2 concentration, MPO activity and ACE2 activity. […] Concentration of PGE2 from stomach tissue samples was performed as described by Souza et al. (2003), supra, and quantification was obtained by LC-MS. […] Last, the extent of inhibition of ACE2 activity was determined to establish whether GL1001 was effective in inhibiting its ACE2 target in stomach tissues. The ACE2 activity assay is similar to the method of Vickers et al. (2002) J. Biol. Chem. 277:14838-14843, wherein purified recombinant ACE2 (100 pM) and a quenched fluorescent substrate (100-150 μM APK (7-methoxycoumarin-4-yl)acetyl-Ala-Pro-Lys (2,4-dinitrophenyl)) are used in end-point fluorescence reactions (excitation 320 nm, emission 405 nm). […]
(§2) Data are expressed as means with standard errors. […]

[2] = system: LPS-induced NF-κB dependent transcription; assay: In vivo imaging of LPS-induced NF-κB dependent transcription in NF-κB::Luc mice; set-up: species or system mouse
Description: More particularly, transgenic NF-κB::Luc mice were generated using three NF-κB response elements from the Igκ light chain promoter fused to a firefly luciferase gene as described by Carlsen et al. (2002) J. Immunol. 168:1441-1446. Pronuclear microinjection of purified construct DNA was used to generate transgenic founders in the C57BL/6 XCBA/J background. Founders were subsequently back-crossed to the C57BL/6 albino background. All experimental protocols were approved by the Institutional Animal Care and Use Committee and conform to the ILAR guide for the care and used of laboratory animals. For in vivo imaging, NF-κB::Luc mice were injected intraperitoneally with luciferin (150 mg/1 kg) 10 minutes before imaging, anesthetized (using 1-3% isoflurane) and placed into a light-tight camera box. […] Signal data were also quantitated and archived using the Living Image® software. Photons of light were quantitated using an oval region of interest (ROI) of varying sizes depending on the procedure, as described further below.
GL1001 was further tested for in vivo anti-inflammatory activity by examining its effects on bacterial LPS-induced NF-κB dependent transcription in NF-κB::Luc mice. […] Mice were subjected to quantitative abdominal imaging at 2, 4 and 6 hours following LPS administration, as described above. […] Luciferase signal was quantitated from several regions of interest. […]

[3] = system: activator protein-1 (AP-1); assay: In vivo basal reporter luciferase expression in AP-1::Luc mice; set-up: species or system mouse; conditions: data not shown
[4] = system: diclofenac-induced gastric damage; assay: Acute diclofenac-induced gastric toxicity in rats: gastric damage score; assay type: in vivo, rat; conditions: Group C: GL1001 90 mg/kg oral gavage 30 min before diclofenac 50 mg/kg oral, 3 h; vehicle-diclofenac Group B 17.80 ± 5.08; p<0.02
Protocol: as §1
Three hours after diclofenac treatment, all animals were sacrificed and stomachs were removed and imaged to determine the severity of gastric damage. Additionally, stomach tissue samples were taken to assess disease activity and pharmacodynamic effects. Gastric damage scores were determined from photographic images (Ma & Wallace (2003) Am. J. Physiol. Gastrointest. Liver Physiol. 279; 341-346). Removed stomachs were opened along the greater curvature, pinned out on a wax block, and photographed along a 25 mm ruler reference with a digital 35 mm camera. The lesion area was then determined using enlarged images and computer software (www.scioncorp.co/pages/scion_image_windows.htm) that allows superimposed drawing of the perimeter of a wound and calculation of the area based on the ruler reference. Stomach samples (excluding forestomach) were used for measurements of PGE2 concentration, MPO activity and ACE2 activity. PRE2 determinations are used in this study as a hiomarker of diclofenac effect since its mechanism of action involves inhibition of cyclooxygenase (COX-2 and COX-1) enzymes which in turn results in inhibition of PGE2 synthesis. Concentration of PGE2 from stomach tissue samples was performed as described by Souza et al. (2003), supra, and quantification was obtained by LC-MS. MTO, an enzyme found in abundance in granulocytes, is used as a biochemical marker of tissue inflammation. When tissues undergo inflammatory processes, granulocytes are recruited to the site of inflammation and infiltrate the affected tissue giving rise to increase MPO activity (Souza et al. (2003), supra). Last, the extent of inhibition of ACE2 activity was determined to establish whether GL1001 was effective in inhibiting its ACE2 target in stomach tissues. The ACE2 activity assay is similar to the method of Vickers et al. (2002) J. Biol. Chem. 277:14838-14843, wherein purified recombinant ACE2 (100 pM) and a quenched fluorescent substrate (100-150 μM APK (7-methoxycoumarin-4-yl)acetyl-Ala-Pro-Lys (2,4-dinitrophenyl)) are used in end-point fluorescence reactions (excitation 320 nm, emission 405 nm). For stomach ACE2 measurements, tissues were homogenized in the presence of a general protease inhibitor (PMSF) and specific ACE inhibitors. […]
as §2

With CC(C)C[C@H](N[C@@H](Cc1cncn1Cc1cc(Cl)cc(Cl)c1)C(=O)O)C(=O)O [GL1001, (S,S)-2-[1-carboxy-2-[3-(3,5-dichlorobenzyl)-3H-imidazol-4-yl]-ethylamino]-4-methylpentanoic acid] the “inhibition of basal in vivo levels of NF-κB dependent transcription in abdominal ROI” value ([1]; 300 mg/kg s.c., p<0.01) was “over 40%”, the “inhibition of basal in vivo levels of NF-κB dependent transcription in abdominal ROI” value ([1]; both lower doses s.c.) was “lesser but still significant extents” and the “Gastric ACE2 activity” value (ACE2) was 436 pmol/mg and 436 ± 20 pmol/mg. For the same molecule, the “LPS induced NF-κB signaling response, abdominal region” value ([2]; GL1001 30, 100 and 300 mg/kg s.c. 1 hour before LPS i.v., FIG. 3) was “significantly reduced”, the “LPS-induced NF-κB signaling, abdominal region” value ([2]; repeat with dose range 3-100 mg/kg s.c., effect at 30 and 100 mg/kg, FIG. 4) was “significantly reduced” and the “effect on basal in vivo levels of reporter luciferase expression” value [3] was “no significant effect”. The Gastric damage score [4] was 2.6 and 2.63 ± 0.87.

Reference: patent US20100035848A1, “THERAPY FOR DISORDERS OF THE PROXIMAL DIGESTIVE TRACT” (priority 2008, published 2010)
